Patent publication US9580416B2, “Inhibitors of Bruton's tyrosine kinase” (PHARMACYCLICS LLC, priority 2014, dated 2017)
Where two headings read alike, the source gives them in different places.

Legend:
Assay type in all cases: biochemical
Lck = Lck (Homo sapiens, UniProt P06239); experiment: Lck kinase activity, TR-FRET assay
In short: (§1)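 Enzyme (Btk 0.5 nM; Lck 6 nM) reacted 1 h with inhibitor, ATP at Km and biotin-peptide substrate in pH 7.4 buffer, 10% DMSO. Phosphopeptide detected by Eu-p-Tyr100 antibody plus streptavidin-APC (665/615 nm). IC50 calculated from fitted Ki(app) via ATP/Km correction plus half total enzyme.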

JAK3 = target: T1, JAK3 (Homo sapiens, UniProt P52333); experiment: Inhibition of a panel of kinases, in vitro HotSpot kinase assay: JAK3
T1 sequence (P52333 1-1124): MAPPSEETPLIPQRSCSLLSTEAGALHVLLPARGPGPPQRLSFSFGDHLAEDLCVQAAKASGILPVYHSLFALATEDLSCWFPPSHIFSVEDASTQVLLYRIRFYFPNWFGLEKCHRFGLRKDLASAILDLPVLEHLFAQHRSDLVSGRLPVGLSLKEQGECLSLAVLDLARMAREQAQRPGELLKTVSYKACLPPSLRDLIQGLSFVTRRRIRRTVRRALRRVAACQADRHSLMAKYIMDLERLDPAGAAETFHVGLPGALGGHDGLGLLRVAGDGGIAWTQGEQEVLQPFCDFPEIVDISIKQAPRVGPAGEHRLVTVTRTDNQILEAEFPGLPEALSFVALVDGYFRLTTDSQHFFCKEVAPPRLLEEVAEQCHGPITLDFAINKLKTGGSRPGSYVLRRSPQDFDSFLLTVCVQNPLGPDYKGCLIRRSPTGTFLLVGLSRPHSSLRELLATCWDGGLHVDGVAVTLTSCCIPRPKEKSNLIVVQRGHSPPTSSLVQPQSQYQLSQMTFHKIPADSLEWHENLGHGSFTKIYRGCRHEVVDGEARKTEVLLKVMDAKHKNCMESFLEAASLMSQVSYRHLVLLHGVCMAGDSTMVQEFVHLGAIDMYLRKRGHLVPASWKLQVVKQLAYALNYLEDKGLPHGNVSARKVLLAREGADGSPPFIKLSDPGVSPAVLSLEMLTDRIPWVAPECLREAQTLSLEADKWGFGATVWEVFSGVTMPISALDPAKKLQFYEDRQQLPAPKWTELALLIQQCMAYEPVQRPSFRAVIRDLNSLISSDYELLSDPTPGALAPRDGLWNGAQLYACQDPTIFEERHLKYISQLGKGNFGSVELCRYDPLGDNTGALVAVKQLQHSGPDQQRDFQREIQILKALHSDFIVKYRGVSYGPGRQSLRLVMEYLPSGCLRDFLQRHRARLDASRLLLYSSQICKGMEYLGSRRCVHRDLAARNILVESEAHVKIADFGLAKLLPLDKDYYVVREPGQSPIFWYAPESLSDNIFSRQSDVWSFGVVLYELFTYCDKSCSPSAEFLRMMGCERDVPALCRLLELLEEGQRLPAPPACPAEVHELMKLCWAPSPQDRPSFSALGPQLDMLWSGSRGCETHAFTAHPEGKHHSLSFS
Experimental: (§2) The degree of inhibition of a panel of kinases is determined using the in vitro HotSpot kinase assay (purified enzymes, ^33P-ATP, an appropriate substrate and 1 uM ATP).

EGFR = EGFR (Homo sapiens, UniProt P00533); experiment: Inhibition of a panel of kinases, in vitro HotSpot kinase assay: EGFR
Sequence of EGFR (P00533 25-1210): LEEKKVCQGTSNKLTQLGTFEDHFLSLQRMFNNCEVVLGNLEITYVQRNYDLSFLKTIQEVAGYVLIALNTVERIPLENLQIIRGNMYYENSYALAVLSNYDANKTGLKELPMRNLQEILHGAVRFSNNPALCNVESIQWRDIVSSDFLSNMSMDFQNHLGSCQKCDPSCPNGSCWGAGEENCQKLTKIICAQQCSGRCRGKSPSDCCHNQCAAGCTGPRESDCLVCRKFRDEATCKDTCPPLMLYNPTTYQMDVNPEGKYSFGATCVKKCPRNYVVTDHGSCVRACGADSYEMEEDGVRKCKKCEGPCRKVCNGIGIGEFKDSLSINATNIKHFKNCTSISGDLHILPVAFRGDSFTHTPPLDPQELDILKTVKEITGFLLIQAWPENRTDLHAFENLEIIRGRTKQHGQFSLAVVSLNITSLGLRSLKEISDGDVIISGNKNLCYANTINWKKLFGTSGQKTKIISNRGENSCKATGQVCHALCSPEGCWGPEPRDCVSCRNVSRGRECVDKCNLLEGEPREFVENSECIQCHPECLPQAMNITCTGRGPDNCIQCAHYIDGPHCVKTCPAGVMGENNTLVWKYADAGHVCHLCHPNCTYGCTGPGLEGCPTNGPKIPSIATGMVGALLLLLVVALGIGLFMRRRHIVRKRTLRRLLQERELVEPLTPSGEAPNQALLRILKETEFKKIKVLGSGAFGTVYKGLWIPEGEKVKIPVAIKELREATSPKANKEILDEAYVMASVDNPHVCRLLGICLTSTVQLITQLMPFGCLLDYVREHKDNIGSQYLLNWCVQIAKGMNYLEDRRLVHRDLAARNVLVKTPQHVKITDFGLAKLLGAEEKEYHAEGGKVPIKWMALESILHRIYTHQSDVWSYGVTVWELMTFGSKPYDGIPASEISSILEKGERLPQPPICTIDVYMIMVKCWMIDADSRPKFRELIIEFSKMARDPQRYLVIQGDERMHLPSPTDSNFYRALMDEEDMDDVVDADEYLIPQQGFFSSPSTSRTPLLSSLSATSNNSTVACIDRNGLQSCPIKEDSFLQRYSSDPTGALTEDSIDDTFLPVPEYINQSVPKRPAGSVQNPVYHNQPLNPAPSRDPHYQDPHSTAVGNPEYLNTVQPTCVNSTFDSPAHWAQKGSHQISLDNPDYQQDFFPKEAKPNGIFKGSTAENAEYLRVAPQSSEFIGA
Experimental: as §2

Btk = Btk (Homo sapiens, UniProt Q06187); experiment: Btk kinase activity, TR-FRET assay
Sequence of Btk (Q06187 whole entry): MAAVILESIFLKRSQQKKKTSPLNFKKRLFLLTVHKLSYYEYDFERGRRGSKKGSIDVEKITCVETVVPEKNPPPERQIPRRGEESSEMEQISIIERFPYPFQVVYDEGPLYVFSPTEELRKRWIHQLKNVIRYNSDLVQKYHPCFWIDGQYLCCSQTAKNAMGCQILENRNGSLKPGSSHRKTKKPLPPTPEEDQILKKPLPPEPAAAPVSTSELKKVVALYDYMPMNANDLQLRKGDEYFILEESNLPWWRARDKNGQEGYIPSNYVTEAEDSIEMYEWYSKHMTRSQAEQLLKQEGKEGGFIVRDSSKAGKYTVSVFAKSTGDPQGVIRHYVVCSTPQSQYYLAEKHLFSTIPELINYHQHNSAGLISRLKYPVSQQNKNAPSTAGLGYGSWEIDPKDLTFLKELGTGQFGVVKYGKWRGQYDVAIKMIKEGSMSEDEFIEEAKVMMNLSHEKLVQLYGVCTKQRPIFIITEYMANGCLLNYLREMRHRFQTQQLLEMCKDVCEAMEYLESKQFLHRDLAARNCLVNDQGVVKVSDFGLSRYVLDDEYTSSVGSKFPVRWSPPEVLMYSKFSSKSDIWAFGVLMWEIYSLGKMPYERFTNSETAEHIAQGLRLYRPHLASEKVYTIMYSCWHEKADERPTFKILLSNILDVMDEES
In short: as §1

Sequence of Lck (P06239 whole entry, species assumed): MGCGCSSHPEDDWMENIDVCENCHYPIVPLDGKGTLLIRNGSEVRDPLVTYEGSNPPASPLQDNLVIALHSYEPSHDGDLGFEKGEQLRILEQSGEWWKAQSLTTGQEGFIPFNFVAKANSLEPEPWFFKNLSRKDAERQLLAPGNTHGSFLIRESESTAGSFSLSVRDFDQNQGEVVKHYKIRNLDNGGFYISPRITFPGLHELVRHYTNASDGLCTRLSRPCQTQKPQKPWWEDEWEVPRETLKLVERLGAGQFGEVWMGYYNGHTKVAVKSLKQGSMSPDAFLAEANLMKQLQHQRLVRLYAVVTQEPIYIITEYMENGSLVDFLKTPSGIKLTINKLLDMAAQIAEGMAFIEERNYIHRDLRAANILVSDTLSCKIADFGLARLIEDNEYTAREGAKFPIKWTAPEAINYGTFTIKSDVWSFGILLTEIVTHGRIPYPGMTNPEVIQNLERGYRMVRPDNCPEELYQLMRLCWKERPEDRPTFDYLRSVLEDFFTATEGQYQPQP

Structure (SMILES)	IC50 (Lck) [nM]	IC50 (JAK3) [nM]	IC50 (EGFR) [nM]	IC50 (Btk) [nM]	IC50 (Lck; read-out: LCK (IC50)) [nM]	IC50 (Btk; read-out: Btk (IC50)) [nM]
Cc1ccnc(NC(=O)c2ccc(Oc3ccnc4[nH]nc(N[C@@H]5CCCN(C(=O)Oc6ccccc6)C5)c34)cc2)c1 [compound 93, phenyl (3R)-3-[(4-{4-[(4-methylpyridin-2-yl)carbamoyl]phenoxy}-1H-pyrazolo[3,4-b]pyridin-3-yl)amino]piperidine-1-carboxylate]	1000 to 10000	> 10000	> 10000	100 to 1000	–	–
Cc1ccnc(NC(=O)c2ccc(Oc3ccnc4[nH]nc(N[C@@H]5CCCN(C(=O)CCCN(C)C)C5)c34)cc2)c1 [compound 95]	–	> 10000	1000 to 10000	–	< 100	< 100
Cc1ccnc(NC(=O)c2ccc(Oc3ccnc4[nH]nc(N[C@@H]5CCCN(C(=O)C6CCNCC6)C5)c34)cc2)c1 [compound 96, N-(4-methylpyridin-2-yl)-4-[(3-{[(3R)-1-(piperidin-4-carbonyl)piperidin-3-yl]amino}-1H-pyrazolo[3,4-b]pyridin-4-yl)oxy]benzamide]	–	> 10000	1000 to 10000	–	100 to 1000	< 100
CNC(=O)C(=O)N1CCC[C@@H](Nc2n[nH]c3nccc(Oc4ccc(C(=O)Nc5cc(C)ccn5)cc4)c23)C1 [compound 97, 4-[(3-{[(3R)-1-[(methylcarbamoyl)carbonyl]piperidin-3-yl]amino}-1H-pyrazolo[3,4-b]pyridin-4-yl)oxy]-N-(4-methylpyridin-2-yl)benzamide]	–	> 10000	1000 to 10000	–	100 to 1000	< 100
Cc1ccnc(NC(=O)c2ccc(Oc3ccnc4[nH]nc(N[C@@H]5CCCN(C(=O)C(=O)N(C)C)C5)c34)cc2)c1 [compound 98, 4-[(3-{[(3R)-1-[(dimethylcarbamoyl)carbonyl]piperidin-3-yl]amino}-1H-pyrazolo[3,4-b]pyridin-4-yl)oxy]-N-(4-methylpyridin-2-yl)benzamide]	–	> 10000	> 10000	–	100 to 1000	< 100
COCC1(C(=O)N2CCC[C@@H](Nc3n[nH]c4nccc(Oc5ccc(C(=O)Nc6cc(C)ccn6)cc5)c34)C2)CCC1 [compound 99, 4-[(3-{[(3R)-1-[1-(methoxymethyl)cyclobutanecarbonyl]piperidin-3-yl]amino}-1H-pyrazolo[3,4-b]pyridin-4-yl)oxy]-N-(4-methylpyridin-2-yl)benzamide]	–	> 10000	> 10000	–	100 to 1000	< 100
Cc1ccnc(NC(=O)c2ccc(Oc3ccnc4[nH]nc(N[C@@H]5CCCN(C(=O)C6CC6)C5)c34)cc2)c1 [compound 100, 4-[(3-{[(3R)-1-cyclopropanecarbonylpiperidin-3-yl]amino}-1H-pyrazolo[3,4-b]pyridin-4-yl)oxy]-N-(4-methylpyridin-2-yl)benzamide]	–	> 10000	1000 to 10000	–	100 to 1000	< 100
Cc1ccnc(NC(=O)c2ccc(Oc3ccnc4[nH]nc(N[C@@H]5CCCN(C(=O)C6(C#N)CC6)C5)c34)cc2)c1 [compound 101, 4-[(3-{[(3R)-1-(1-cyanocyclopropanecarbonyl)piperidin-3-yl]amino}-1H-pyrazolo[3,4-b]pyridin-4-yl)oxy]-N-(4-methylpyridin-2-yl)benzamide]	–	> 10000	> 10000	–	100 to 1000	< 100
Cc1ccnc(NC(=O)c2ccc(Oc3ccnc4[nH]nc(N[C@@H]5CCCN(C(=O)C(C)(C)C#N)C5)c34)cc2)c1 [compound 102, 4-[(3-{[(3R)-1-(2-cyano-2,2-dimethylacetyl)piperidin-3-yl]amino}-1H-pyrazolo[3,4-b]pyridin-4-yl)oxy]-N-(4-methylpyridin-2-yl)benzamide]	–	> 10000	> 10000	–	100 to 1000	< 100
Cc1ccnc(NC(=O)c2ccc(Oc3ccnc4[nH]nc(N[C@@H]5CCCN(C(=O)C6(C)CCN(C(=O)OC(C)(C)C)CC6)C5)c34)cc2)c1 [compound 103, tert-butyl 4-methyl-4-[(3R)-3-[(4-{4-[(4-methylpyridin-2-yl)carbamoyl]phenoxy}-1H-pyrazolo[3,4-b]pyridin-3-yl)amino]piperidine-1-carbonyl]piperidine-1-carboxylate]	–	> 10000	> 10000	–	1000 to 10000	< 100
Cc1ccnc(NC(=O)c2ccc(Oc3ccnc4[nH]nc(N[C@@H]5CCCN(C(=O)C6(C)CCNCC6)C5)c34)cc2)c1 [compound 104, 4-[(3-{[(3R)-1-(4-methylpiperidine-4-carbonyl)piperidin-3-yl]amino}-1H-pyrazolo[3,4-b]pyridin-4-yl)oxy]-N-(4-methylpyridin-2-yl)benzamide]	–	> 10000	1000 to 10000	–	100 to 1000	< 100
Cc1ccnc(NC(=O)c2ccc(Oc3ccnc4[nH]nc(N[C@@H]5CCCN(C(=O)C6CCOCC6)C5)c34)cc2)c1 [compound 105, N-(4-methylpyridin-2-yl)-4-[(3-{[(3R)-1-(oxane-4-carbonyl)piperidin-3-yl]amino}-1H-pyrazolo[3,4-b]pyridin-4-yl)oxy]benzamide]	–	> 10000	> 10000	–	1000 to 10000	< 100
Cc1ccnc(NC(=O)c2ccc(Oc3ccnc4[nH]nc(N[C@@H]5CCCN(C(=O)N(C)C)C5)c34)cc2)c1 [compound 106, (3R)-N,N-dimethyl-3-[(4-{4-[(4-methylpyridin-2-yl)carbamoyl]phenoxy}-1H-pyrazolo[3,4-b]pyridin-3-yl)amino]piperidine-1-carboxamide]	–	> 10000	1000 to 10000	–	100 to 1000	< 100
Cc1ccnc(NC(=O)c2ccc(Oc3ccnc4[nH]nc(N[C@@H]5CCCN(C(=O)C6CCCC6)C5)c34)cc2)c1 [compound 107, 4-[(3-{[(3R)-1-cyclopentanecarbonylpiperidin-3-yl]amino}-1H-pyrazolo[3,4-b]pyridin-4-yl)oxy]-N-(4-methylpyridin-2-yl)benzamide]	–	> 10000	> 10000	–	1000 to 10000	< 100
CCOC(=O)N1CCC[C@@H](Nc2n[nH]c3nccc(Oc4ccc(C(=O)Nc5cc(C)ccn5)cc4)c23)C1 [compound 108, ethyl (3R)-3-[(4-{4-[(4-methylpyridin-2-yl)carbamoyl]phenoxy}-1H-pyrazolo[3,4-b]pyridin-3-yl)amino]piperidine-1-carboxalate]	–	> 10000	1000 to 10000	–	100 to 1000	< 100
Cc1ccnc(NC(=O)c2ccc(Oc3ccnc4[nH]nc(N[C@@H]5CCCN(C(=O)c6ccccc6)C5)c34)cc2)c1 [compound 109, 4-[(3-{[(3R)-1-benzoylpiperidin-3-yl]amino}-1H-pyrazolo[3,4-b]pyridin-4-yl)oxy]-N-(4-methylpyridin-2-yl)benzamide]	–	> 10000	> 10000	–	1000 to 10000	< 100
Cc1ccnc(NC(=O)c2ccc(Oc3ccnc4[nH]nc(N[C@@H]5CCCN(C(=O)c6ccccn6)C5)c34)cc2)c1 [compound 110, N-(4-methylpyridin-2-yl)-4-[(3-{[(3R)-1-(pyridine-2-carbonyl)piperidin-3-yl]amino}-1H-pyrazolo[3,4-b]pyridin-4-yl)oxy]benzamide]	–	> 10000	> 10000	–	1000 to 10000	< 100
CC1(C(=O)N2CCC[C@@H](Nc3n[nH]c4nccc(Oc5ccc(C(=O)Nc6ccccn6)cc5)c34)C2)COC1 [compound 111, 4-[(3-{[(3R)-1-(3-methyloxetane-3-carbonyl)piperidin-3-yl]amino}-1H-pyrazolo[3,4-b]pyridin-4-yl)oxy]-N-(pyridin-2-yl)benzamide]	–	> 10000	> 10000	–	1000 to 10000	< 100
